Values of other authors as cited in PubChem BioAssay AID1259409 (Chemical Carcinogenesis Research Information System (CCRIS), 2018).

Test system: rodent chemically induced tumor inhibition, incidence and multiplicity
Test: CCRIS tumor inhibitor studies
Conditions: Promoter: NONE USED

SMILES: O=S(=O)(O)c1ccc(S)cc1
- tumour outcome (control, treated, inhibition, significance) (Carcinogen: BETA-PROPIOLACTONE, 57-57-8, Dose [Inhibitor]: 40 UMOL IN 0.2 ML WATER 5 MIN PRIOR TO EACH CARCINOGEN DOSE (STUDY DURATION: 26 WK), Route [Inhibitor]: GAVAGE, Species: MOUSE, Strain/Sex: STRAIN-A/FEMALE, Target Tissue: Type of Lesion: FORESTOMACH: PAPILLOMA, Dose [Carcinogen]: 28 UMOL IN 0.1 ML WATER 2/WK FOR 10 WK): 100%, 57%, 43%, p<0.001
- tumour outcome (control, treated, inhibition, significance) (Carcinogen: BETA-PROPIOLACTONE, 57-57-8, Dose [Inhibitor]: 70 UMOL IN 0.2 ML WATER BEGINNING 5 MIN PRIOR TO EACH CARCINOGEN DOSE (STUDY DURATION: 50 WK), Route [Inhibitor]: INTRARECTAL, Species: RAT, Strain/Sex: F344/MALE, Target Tissue: Type of Lesion: LARGE INTESTINE: ADENOMATOUS POLYP, Dose [Carcinogen]: 35 UMOL IN 0.1 ML PROPYLENE GLYCOL 2/WK FOR 6 WK): 100%, 21%, 79%, p<0.001

SMILES: S=C=NCCCCCCCCCCc1ccccc1
- tumour outcome (control, treated, inhibition, significance) (Carcinogen: 4-(METHYLNITROSAMINO)-1-(3-PYRIDYL)-1-BUTANONE, 64091-91-4, Dose [Inhibitor]: 0, 0.04 UMOL ONCE 2 HR PRIOR TO CARCINOGEN DOSE (STUDY DURATION: 16 WK), Route [Inhibitor]: GAVAGE, Species: MOUSE, Strain/Sex: STRAIN-A/FEMALE, Target Tissue: Type of Lesion: LUNG: ADENOMA, Dose [Carcinogen]: 10 UMOL IN 0.1 ML SALINE ONCE): 100%, 100%, 0%, not significant
- tumour outcome (control, treated, inhibition, significance) (Carcinogen: 4-(METHYLNITROSAMINO)-1-(3-PYRIDYL)-1-BUTANONE, 64091-91-4, Dose [Inhibitor]: 0, 0.1 UMOL ONCE 2 HR PRIOR TO CARCINOGEN DOSE (STUDY DURATION: 16 WK), Route [Inhibitor]: GAVAGE, Species: MOUSE, Strain/Sex: STRAIN-A/FEMALE, Target Tissue: Type of Lesion: LUNG: ADENOMA, Dose [Carcinogen]: 10 UMOL IN 0.1 ML SALINE ONCE): 100%, 100%, 0%, not significant
- tumour outcome (control, treated, inhibition, significance) (Carcinogen: 4-(METHYLNITROSAMINO)-1-(3-PYRIDYL)-1-BUTANONE, 64091-91-4, Dose [Inhibitor]: 0, 0.2 UMOL ONCE 2 HR PRIOR TO CARCINOGEN DOSE (STUDY DURATION: 16 WK), Route [Inhibitor]: GAVAGE, Species: MOUSE, Strain/Sex: STRAIN-A/FEMALE, Target Tissue: Type of Lesion: LUNG: ADENOMA, Dose [Carcinogen]: 10 UMOL IN 0.1 ML SALINE ONCE): 100%, 70%, 30%, p<0.05

SMILES: CCC(C)(C)C(=O)O[C@H]1C[C@@H](C)C=C2C=C[C@H](C)[C@H](CC[C@@H]3C[C@@H](O)CC(=O)O3)[C@H]21
- tumour outcome (control, treated, inhibition, significance) (Carcinogen: 1,2-DIMETHYLHYDRAZINE, 540-73-8, Dose [Inhibitor]: 0, 0.02% IN DIET FOR 25 WK (STUDY DURATION: 25 WK), Route [Inhibitor]: ORAL, Species: MOUSE, Strain/Sex: ICR/FEMALE, Target Tissue: Type of Lesion: COLON: TUMOR, Dose [Carcinogen]: 10 MG/KG BW 1/WK FOR 15 WK): 16/30 (53%), 12/30 (40%), 25%, not significant
- tumour outcome (control, treated, inhibition, significance) (Carcinogen: 1,2-DIMETHYLHYDRAZINE, 540-73-8, Dose [Inhibitor]: 0, 0.1% IN DIET FOR 25 WK (STUDY DURATION: 25 WK), Route [Inhibitor]: ORAL, Species: MOUSE, Strain/Sex: ICR/FEMALE, Target Tissue: Type of Lesion: COLON: TUMOR, Dose [Carcinogen]: 10 MG/KG BW 1/WK FOR 15 WK): 16/30 (53%), 11/30 (37%), 30%, not significant
